Calls of active or inactive are those of the source. The rule behind the calls is not given here.
Experiments:
MDA-MB-231 [1] = assay: Antiproliferative activity against human MDA-MB-231 cells harboring wild type BRCA and c-Met amplification assessed as inhibition of cell growth incubated for 7 days by MTT assay; assay type: functional, cell-based; settings: MDA-MB-231, 168 h
[2] = target: T1, Hepatocyte growth factor receptor (Homo sapiens, UniProt P08581); assay: Inhibition of c-Met (unknown origin) by HTRF method
[3] = target: T2, Poly [ADP-ribose] polymerase 1 (Homo sapiens, UniProt P09874); assay: Inhibition of PARP1 (unknown origin) using histone as substrate incubated for 45 mins by absorbance based analysis
[4] = target: ALK tyrosine kinase receptor (Homo sapiens) (UniProt Q9UM73); assay: Inhibition of ALK (unknown origin) at 1 uM relative to control
MDA-MB-231 [5] = assay: Antitumor activity against human MDA-MB-231 cells xenografted in female Balb/c nude mouse assessed as reduction in tumor weight at 12.5 to 50 mg/kg/day, ip qd administered for 28 days; assay type: functional, organism-based; settings: dose 12.5-50 mg/kg/day, time 28.0 day
MDA-MB-231 [6] = assay: Downregulation of phosphorylated AKT level in human MDA-MB-231 cells with H2O2-induced oxidative stress at 0.5 uM […]; assay type: functional, cell-based
MDA-MB-231 [7] = assay: Effect on c-MET […] in human MDA-MB-231 cells with H2O2-induced oxidative stress at 0.5 uM by RT-qPCR analysis; assay type: functional, cell-based
[8] = test system: Olaparib-resistant HCT116; assay: Antitumor activity against human Olaparib-resistant HCT116 cells xenografted in female Balb/c nude mouse assessed as reduction in tumor weight at 5 mg/kg/day, iv qd administered for 21 days; assay type: functional, organism-based; settings: time 21.0 day
MDA-MB-231 [9] = assay: Antitumor activity against human MDA-MB-231 cells xenografted in female Balb/c nude mouse assessed as reduction in Ki67 expression in tumor at 50 mg/kg/day, ip qd administered for 28 days by immunohistochemistry analysis; assay type: functional, organism-based; settings: time 28.0 day
MDA-MB-231 [10] = assay: Antiproliferative activity against human MDA-MB-231 cells assessed as inhibition of cell growth assessed as reduction in colony formation at 0.5 to 1 uM incubated for 14 days by crystal violet staining based microscopic analysis; assay type: functional; settings: dose 0.5-1 µM, time 14.0 day
MDA-MB-231 [11] = assay: Induction of DNA damage in human MDA-MB-231 cells assessed as increase in gammaH2AX expression at 0.5 to 1 uM incubated for 3 days by immunofluorescence based laser confocal microscopic analysis; assay type: functional, cell-based; settings: dose 0.5-1 µM, time 3.0 day
[12] = target: T1, Hepatocyte growth factor receptor; assay: Inhibition of c-Met (unknown origin) at 1 uM relative to control
MDA-MB-231 [13] = assay: Effect on BRCA2 mRNA level in human MDA-MB-231 cells at 0.5 uM by RT-qPCR analysis; assay type: functional, cell-based
MDA-MB-231 [14] = assay: Induction of G2/M phase cell cycle arrest in human MDA-MB-231 cells at 0.5 to 1 uM incubated for 4 days by PI staining based flow cytometry analysis; assay type: functional; settings: dose 0.5-1 µM, time 4.0 day
MDA-MB-231 [15] = assay: Downregulation of PAR protein level in human MDA-MB-231 cells with H2O2-induced oxidative stress at 0.5 uM incubated for 72 hrs by Western blot analysis; assay type: functional, cell-based
[16] = target: T1, Hepatocyte growth factor receptor; assay: Binding affinity to c-Met in human MDA-MB-231 cells assessed as thermal stabilization at 1 uM at 43 to 55 degreeC incubated for 12 hrs by CETSA; assay type: cell-based
MDA-MB-231 [17] = assay: Effect on homologous recombination in human MDA-MB-231 cells assessed as reduction in Rad51 protein level by measuring disruption of BRCA1-BRCA2-Rad51 complex formation at 0.5 uM incubated for 72 hrs by Western blot analysis; assay type: functional, cell-based
MDA-MB-231 [18] = assay: Downregulation of phosphorylated AKT level in human MDA-MB-231 cells with H2O2-induced oxidative stress at 0.5 uM incubated for 72 hrs by Western blot analysis; assay type: functional, cell-based
MDA-MB-231 [19] = assay: Antitumor activity against human MDA-MB-231 cells xenografted in female Balb/c nude mouse assessed as induction of DNA damage by measuring increase in gammaH2AX expression in tumor at 50 mg/kg/day, ip qd administered for 28 days by immunohistochemistry analysis; assay type: functional, organism-based; settings: time 28.0 day
MDA-MB-231 [20] = assay: Downregulation of phosphorylated c-MET protein level in human MDA-MB-231 cells with H2O2-induced oxidative stress at 0.5 uM incubated for 72 hrs by Western blot analysis; assay type: functional, cell-based
MDA-MB-231 [21] = assay: Effect on homologous recombination in human MDA-MB-231 cells assessed as reduction in BRCA1 protein level by measuring disruption of BRCA1-BRCA2-Rad51 complex formation at 0.5 uM incubated for 72 hrs by Western blot analysis; assay type: functional, cell-based
MDA-MB-231 [22] = assay: Effect on homologous recombination in human MDA-MB-231 cells assessed as reduction in Rad51 nuclear level at 0.5 to 1 uM incubated for 72 hrs by immunofluorescence analysis; assay type: functional, cell-based; settings: dose 0.5-1 µM
MDA-MB-231 [23] = assay: Induction of DNA damage in human MDA-MB-231 cells assessed as increase in gammaH2AX protein level at 0.5 uM incubated for 72 hrs by Western blot analysis; assay type: functional, cell-based
MDA-MB-231 [24] = assay: Induction of DNA damage in human MDA-MB-231 cells assessed as increase in tail DNA at 0.5 uM incubated for 72 hrs by comet assay; assay type: functional, cell-based
MDA-MB-231 [25] = assay: Antitumor activity against human MDA-MB-231 cells xenografted in female Balb/c nude mouse assessed as induction of apoptosis by measuring upregulation of cleaved caspase-3 expression in tumor at 50 mg/kg/day, ip qd administered for 28 days by immunohistochemistry analysis; assay type: functional, organism-based; settings: time 28.0 day
MDA-MB-231 [26] = assay: Effect on BRCA2 protein level in human MDA-MB-231 cells at 0.5 uM incubated for 72 hrs by Western blot analysis; assay type: functional, cell-based
MDA-MB-231 [27] = assay: Effect on PARP1 protein expression in human MDA-MB-231 cells with H2O2-induced oxidative stress at 0.5 uM incubated for 72 hrs by Western blot analysis; assay type: functional, cell-based
[28] = test system: Olaparib-resistant HCT116; assay: Antitumor activity against human Olaparib-resistant HCT116 cells xenografted in female Balb/c nude mouse assessed as reduction in tumor weight at 25 to 100 mg/kg/day, ip qd administered for 21 days; assay type: functional, organism-based; settings: dose 25-100 mg/kg/day, time 21.0 day
[29] = target: Proto-oncogene tyrosine-protein kinase ROS (Homo sapiens) (UniProt P08922); assay: Inhibition of ROS1 (unknown origin) at 1 uM relative to control
MDA-MB-231 [30] = assay: Induction of DNA damage in human MDA-MB-231 cells assessed as increase in gammaH2AX […] analysis; assay type: functional, cell-based
MDA-MB-231 [31] = assay: Effect on homologous recombination in human MDA-MB-231 cells assessed as reduction in BRCA1 mRNA level by measuring disruption of BRCA1-BRCA2-Rad51 complex formation at 0.5 uM by RT-qPCR analysis; assay type: functional, cell-based
MDA-MB-231 [32] = assay: Effect on homologous recombination in human MDA-MB-231 cells assessed as reduction in BRCA2-Rad51 complex formation at 0.5 uM incubated for 72 hrs by proximity ligation assay; assay type: functional, cell-based
MDA-MB-231 [33] = assay: Antitumor activity against human MDA-MB-231 cells xenografted in female Balb/c nude mouse assessed as reduction in BRCA1 expression in tumor at 50 mg/kg/day, ip qd administered for 28 days by immunohistochemistry analysis; assay type: functional, organism-based; settings: time 28.0 day
MDA-MB-231 [34] = assay: Inhibition of PARP1/c-Met protein-protein interaction in H2O2 stimulated human MDA-MB-231 cells at 0.5 uM incubated for 72 hrs by proximity ligation assay; assay type: cell-based
MDA-MB-231 [35] = assay: Downregulation of PAR mRNA level in human MDA-MB-231 cells with H2O2-induced oxidative stress at 0.5 uM by RT-qPCR analysis; assay type: functional, cell-based
MDA-MB-231 [36] = assay: Effect on homologous recombination in human MDA-MB-231 cells assessed as reduction in Rad51 mRNA level by measuring disruption of BRCA1-BRCA2-Rad51 complex formation at 0.5 uM by RT-qPCR analysis; assay type: functional, cell-based
[37] = target: T2, Poly [ADP-ribose] polymerase 1; assay: Binding affinity to PARP1 in human MDA-MB-231 cells assessed as thermal stabilization at 1 uM at 43 to 55 degreeC incubated for 12 hrs by CETSA; assay type: cell-based
MDA-MB-231 [38] = assay: Effect on c-MET protein expression in human MDA-MB-231 cells with H2O2-induced oxidative stress at 0.5 uM incubated for 72 hrs by Western blot analysis; assay type: functional, cell-based
MDA-MB-231 [39] = assay: Effect on PARP1 […] in human MDA-MB-231 cells with H2O2-induced oxidative stress at 0.5 uM by RT-qPCR analysis; assay type: functional, cell-based
MDA-MB-231 [40] = assay: Downregulation of phosphorylated c-MET mRNA level in human MDA-MB-231 cells with H2O2-induced oxidative stress at 0.5 uM by RT-qPCR analysis; assay type: functional, cell-based
[41] = target: T1, Hepatocyte growth factor receptor; assay: Inhibition of c-Met (unknown origin) at 100 nM by HTRF method relative to control

T1 sequence (P08581 whole entry): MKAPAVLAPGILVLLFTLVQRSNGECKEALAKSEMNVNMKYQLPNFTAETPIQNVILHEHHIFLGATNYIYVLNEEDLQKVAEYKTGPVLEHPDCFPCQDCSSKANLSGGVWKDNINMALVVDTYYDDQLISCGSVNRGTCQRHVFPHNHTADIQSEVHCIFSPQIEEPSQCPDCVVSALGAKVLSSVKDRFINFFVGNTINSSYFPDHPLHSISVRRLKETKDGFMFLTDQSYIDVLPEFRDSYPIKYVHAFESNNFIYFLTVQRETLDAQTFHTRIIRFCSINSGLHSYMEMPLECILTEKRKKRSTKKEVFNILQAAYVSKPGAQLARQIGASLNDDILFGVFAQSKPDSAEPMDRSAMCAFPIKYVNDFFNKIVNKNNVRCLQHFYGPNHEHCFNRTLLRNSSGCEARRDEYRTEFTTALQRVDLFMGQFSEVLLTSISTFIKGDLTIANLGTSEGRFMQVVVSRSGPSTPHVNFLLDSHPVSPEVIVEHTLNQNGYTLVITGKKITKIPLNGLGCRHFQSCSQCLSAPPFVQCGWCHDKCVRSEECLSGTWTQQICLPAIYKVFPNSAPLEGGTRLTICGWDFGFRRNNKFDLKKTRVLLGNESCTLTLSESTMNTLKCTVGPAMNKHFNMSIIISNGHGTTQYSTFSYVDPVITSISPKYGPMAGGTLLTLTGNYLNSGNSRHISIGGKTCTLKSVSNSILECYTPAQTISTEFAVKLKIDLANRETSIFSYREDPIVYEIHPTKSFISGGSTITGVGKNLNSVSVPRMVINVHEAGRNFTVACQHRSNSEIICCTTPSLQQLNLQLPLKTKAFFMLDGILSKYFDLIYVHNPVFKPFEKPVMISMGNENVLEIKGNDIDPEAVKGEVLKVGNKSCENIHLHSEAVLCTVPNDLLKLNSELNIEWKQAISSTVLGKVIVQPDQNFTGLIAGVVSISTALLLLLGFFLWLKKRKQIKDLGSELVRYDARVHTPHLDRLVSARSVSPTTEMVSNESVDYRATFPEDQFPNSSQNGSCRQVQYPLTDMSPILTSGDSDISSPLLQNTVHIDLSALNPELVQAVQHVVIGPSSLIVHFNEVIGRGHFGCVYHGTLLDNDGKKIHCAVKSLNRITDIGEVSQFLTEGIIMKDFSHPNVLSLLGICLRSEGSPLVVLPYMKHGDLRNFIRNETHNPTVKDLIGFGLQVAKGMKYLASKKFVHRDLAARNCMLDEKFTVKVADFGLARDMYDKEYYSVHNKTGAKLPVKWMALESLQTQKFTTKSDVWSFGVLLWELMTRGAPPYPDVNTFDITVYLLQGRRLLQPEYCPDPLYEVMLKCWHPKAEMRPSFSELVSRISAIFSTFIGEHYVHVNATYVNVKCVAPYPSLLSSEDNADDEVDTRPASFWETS
T2 sequence (P09874 whole entry): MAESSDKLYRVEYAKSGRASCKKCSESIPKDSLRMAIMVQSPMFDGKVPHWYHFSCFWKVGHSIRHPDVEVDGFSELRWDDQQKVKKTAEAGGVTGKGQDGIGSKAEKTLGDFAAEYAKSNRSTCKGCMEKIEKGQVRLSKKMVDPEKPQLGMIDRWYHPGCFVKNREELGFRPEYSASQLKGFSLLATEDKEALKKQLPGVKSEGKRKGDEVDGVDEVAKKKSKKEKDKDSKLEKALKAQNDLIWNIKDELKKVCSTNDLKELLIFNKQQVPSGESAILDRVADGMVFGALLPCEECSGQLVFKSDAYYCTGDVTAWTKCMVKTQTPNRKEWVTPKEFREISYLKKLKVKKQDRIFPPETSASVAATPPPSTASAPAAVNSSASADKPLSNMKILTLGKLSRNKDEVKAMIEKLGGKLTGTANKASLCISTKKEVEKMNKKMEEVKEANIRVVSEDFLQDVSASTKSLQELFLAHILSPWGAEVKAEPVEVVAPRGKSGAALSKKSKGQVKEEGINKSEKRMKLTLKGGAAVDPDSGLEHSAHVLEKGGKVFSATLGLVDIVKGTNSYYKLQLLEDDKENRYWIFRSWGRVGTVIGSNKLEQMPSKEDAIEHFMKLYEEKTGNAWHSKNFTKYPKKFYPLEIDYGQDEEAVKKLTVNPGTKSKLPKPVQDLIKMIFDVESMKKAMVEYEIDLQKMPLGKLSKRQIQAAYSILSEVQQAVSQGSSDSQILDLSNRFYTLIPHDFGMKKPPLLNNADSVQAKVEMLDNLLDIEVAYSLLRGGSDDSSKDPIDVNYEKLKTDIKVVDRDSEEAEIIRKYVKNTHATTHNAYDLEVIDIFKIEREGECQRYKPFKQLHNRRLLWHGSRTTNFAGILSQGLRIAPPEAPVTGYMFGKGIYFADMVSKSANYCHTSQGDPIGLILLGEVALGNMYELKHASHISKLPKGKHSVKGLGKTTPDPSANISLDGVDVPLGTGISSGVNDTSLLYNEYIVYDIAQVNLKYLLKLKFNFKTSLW
Chain of Proto-oncogene tyrosine-protein kinase ROS (Homo sapiens) (P08922 whole entry): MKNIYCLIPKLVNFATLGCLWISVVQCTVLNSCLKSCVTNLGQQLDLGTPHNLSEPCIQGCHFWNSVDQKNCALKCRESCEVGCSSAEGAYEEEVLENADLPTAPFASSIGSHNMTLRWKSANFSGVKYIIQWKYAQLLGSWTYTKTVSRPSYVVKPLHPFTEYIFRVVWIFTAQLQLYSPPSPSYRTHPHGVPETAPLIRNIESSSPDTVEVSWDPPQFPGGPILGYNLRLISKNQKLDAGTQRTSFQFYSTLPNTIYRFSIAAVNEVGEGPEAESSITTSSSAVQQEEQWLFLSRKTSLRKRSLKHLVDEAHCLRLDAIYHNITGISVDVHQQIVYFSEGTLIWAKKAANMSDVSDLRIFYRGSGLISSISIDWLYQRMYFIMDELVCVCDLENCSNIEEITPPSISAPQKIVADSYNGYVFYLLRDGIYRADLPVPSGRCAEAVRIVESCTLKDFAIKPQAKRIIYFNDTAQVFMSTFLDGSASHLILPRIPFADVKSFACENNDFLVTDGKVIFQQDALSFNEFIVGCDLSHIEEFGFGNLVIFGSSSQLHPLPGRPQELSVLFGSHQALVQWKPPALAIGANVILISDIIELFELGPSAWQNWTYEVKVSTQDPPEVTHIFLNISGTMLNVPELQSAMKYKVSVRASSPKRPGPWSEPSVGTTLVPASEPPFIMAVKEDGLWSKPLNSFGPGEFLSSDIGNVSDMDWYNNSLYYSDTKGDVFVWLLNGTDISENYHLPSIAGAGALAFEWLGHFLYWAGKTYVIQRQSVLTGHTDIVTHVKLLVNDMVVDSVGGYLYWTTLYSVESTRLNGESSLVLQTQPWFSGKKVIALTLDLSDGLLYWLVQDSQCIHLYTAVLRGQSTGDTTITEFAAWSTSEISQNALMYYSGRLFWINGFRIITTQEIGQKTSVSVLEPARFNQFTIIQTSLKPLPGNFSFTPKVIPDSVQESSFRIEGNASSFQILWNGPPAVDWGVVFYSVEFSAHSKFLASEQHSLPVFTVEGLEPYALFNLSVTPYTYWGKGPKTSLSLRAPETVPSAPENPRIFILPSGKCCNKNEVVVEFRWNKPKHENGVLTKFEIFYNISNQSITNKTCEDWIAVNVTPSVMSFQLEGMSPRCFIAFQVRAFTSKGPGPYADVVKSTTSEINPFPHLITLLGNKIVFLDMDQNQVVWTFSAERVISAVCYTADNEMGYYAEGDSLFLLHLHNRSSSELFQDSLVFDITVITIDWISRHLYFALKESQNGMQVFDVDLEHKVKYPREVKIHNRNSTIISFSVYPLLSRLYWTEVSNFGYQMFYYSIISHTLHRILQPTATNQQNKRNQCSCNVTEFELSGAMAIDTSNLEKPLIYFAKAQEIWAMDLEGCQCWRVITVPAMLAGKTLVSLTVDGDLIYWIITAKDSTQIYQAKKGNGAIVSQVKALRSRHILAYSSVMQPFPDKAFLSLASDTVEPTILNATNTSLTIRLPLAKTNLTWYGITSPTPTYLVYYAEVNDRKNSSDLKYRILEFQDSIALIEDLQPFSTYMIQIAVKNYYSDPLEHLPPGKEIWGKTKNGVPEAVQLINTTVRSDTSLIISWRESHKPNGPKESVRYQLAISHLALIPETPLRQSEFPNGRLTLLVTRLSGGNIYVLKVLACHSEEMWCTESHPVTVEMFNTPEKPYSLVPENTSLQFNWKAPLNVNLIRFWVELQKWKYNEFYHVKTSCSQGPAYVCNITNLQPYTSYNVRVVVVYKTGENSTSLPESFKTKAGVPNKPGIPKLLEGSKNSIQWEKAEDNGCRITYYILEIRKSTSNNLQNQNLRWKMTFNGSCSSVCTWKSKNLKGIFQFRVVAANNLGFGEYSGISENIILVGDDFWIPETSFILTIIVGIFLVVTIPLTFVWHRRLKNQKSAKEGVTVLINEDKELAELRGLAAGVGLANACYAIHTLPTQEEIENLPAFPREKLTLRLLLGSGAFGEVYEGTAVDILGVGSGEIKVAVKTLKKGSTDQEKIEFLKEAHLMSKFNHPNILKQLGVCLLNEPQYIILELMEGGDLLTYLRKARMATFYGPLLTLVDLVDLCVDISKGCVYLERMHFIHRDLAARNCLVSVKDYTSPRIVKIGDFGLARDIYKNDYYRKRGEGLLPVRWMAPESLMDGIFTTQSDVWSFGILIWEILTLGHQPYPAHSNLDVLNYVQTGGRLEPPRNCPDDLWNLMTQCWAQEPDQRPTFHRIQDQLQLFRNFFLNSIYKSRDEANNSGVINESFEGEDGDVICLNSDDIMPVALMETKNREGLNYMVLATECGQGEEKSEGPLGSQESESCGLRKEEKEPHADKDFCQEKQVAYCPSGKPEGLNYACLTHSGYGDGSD

CC1CN(c2ccc3c(OCCn4nc(-c5cnn(C)c5)ccc4=O)ccnc3c2)CCN1C(=O)c1cc(Cc2n[nH]c(=O)c3ccccc23)ccc1F (racemic)
IC50 (MDA-MB-231 [1]): 5540 nM | IC50 [2]: 29 nM | IC50 [3]: 1.1 nM

O=C(c1cc(Cc2n[nH]c(=O)c3ccccc23)ccc1F)N1CCN(c2ccc3c(OCCn4nc(N5CCOCC5)ccc4=O)ccnc3c2)CC1
IC50 [2]: 51.2 nM | IC50 [3]: 7.1 nM

Cn1cc(-c2ccc(=O)n(CCOc3ccnc4cc(NC5CCN(C(=O)c6cc(Cc7n[nH]c(=O)c8ccccc78)ccc6F)CC5)ccc34)n2)cn1
IC50 [2]: 126 nM | IC50 [3]: 4.7 nM

Cn1cc(-c2ccc(=O)n(CCOc3ccnc4cc(N5CCC(NC(=O)c6cc(Cc7n[nH]c(=O)c8ccccc78)ccc6F)C5)ccc34)n2)cn1 (stereo not drawn)
IC50 [2]: 33.1 nM | IC50 [3]: 91.7 nM

Cn1cc(-c2ccc(=O)n(CCOc3ccnc4cc(N5CCN(C(=O)c6cc(Cc7n[nH]c(=O)c8ccccc78)ccc6F)CC5)ccc34)n2)cn1
IC50 (MDA-MB-231 [1]): 230 nM | IC50 [2]: 30 nM | IC50 [3]: 0.12 nM

O=C(c1cc(Cc2n[nH]c(=O)c3ccccc23)ccc1F)N1CCN(c2ccc3c(OCCn4nc(-c5cccnc5)ccc4=O)ccnc3c2)CC1
inhibition [4]: 60.3% | Activity (MDA-MB-231 [5]): Active | Activity (MDA-MB-231 [6]): Active | Activity (MDA-MB-231 [7]): inactive | Activity [8]: Active | Activity (MDA-MB-231 [9]): Active | Activity (MDA-MB-231 [10]): Active | Activity (MDA-MB-231 [11]): Active | inhibition [12]: 98.3% | Activity (MDA-MB-231 [13]): inactive | Activity (MDA-MB-231 [14]): Active | Activity (MDA-MB-231 [15]): Active | Activity [16]: Active | Activity (MDA-MB-231 [17]): Active | Activity (MDA-MB-231 [18]): Active | Activity (MDA-MB-231 [19]): Active | Activity (MDA-MB-231 [20]): Active | Activity (MDA-MB-231 [21]): Active | Activity (MDA-MB-231 [22]): Active | Activity (MDA-MB-231 [23]): Active | Activity (MDA-MB-231 [24]): Active | Activity (MDA-MB-231 [25]): Active | Activity (MDA-MB-231 [26]): inactive | Activity (MDA-MB-231 [27]): inactive | Activity [28]: Active | inhibition [29]: 63% | Activity (MDA-MB-231 [30]): Active | Activity (MDA-MB-231 [31]): Active | Activity (MDA-MB-231 [32]): Active | Activity (MDA-MB-231 [33]): Active | inhibition (MDA-MB-231 [34]): Active | Activity (MDA-MB-231 [35]): Active | Activity (MDA-MB-231 [36]): Active | Activity [37]: Active | Activity (MDA-MB-231 [38]): inactive | Activity (MDA-MB-231 [39]): inactive | Activity (MDA-MB-231 [40]): Active

O=C(c1cc(Cc2n[nH]c(=O)c3ccccc23)ccc1F)N1CCN(c2ccc3c(OCCn4ncccc4=O)ccnc3c2)CC1
inhibition [41]: < 50% | IC50 [3]: 0.9 nM

O=C(c1cc(Cc2n[nH]c(=O)c3ccccc23)ccc1F)N1CCN(c2ccc3c(OCCn4nc(-c5ccc(C(F)(F)F)cc5)ccc4=O)ccnc3c2)CC1
inhibition [41]: < 50% | IC50 [3]: 7.3 nM
